Experimental data reported in PubChem BioAssay (NCI).
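Each compound was tested at five concentrations against cells in 96-well plates for 48 hours. At the TGI there is no net growth.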

Key:
Test in all cases: growth of human tumour cells (NCI), 48 h
786-0 renal = system: 786-0 renal
A498 renal = system: A498 renal
A549 NSCLC = system: A549 NSCLC
ACHN renal = system: ACHN renal
BT-549 breast = system: BT-549 breast
CAKI-1 renal = system: CAKI-1 renal
CCRF-CEM leukemia = system: CCRF-CEM leukemia
COLO 205 colon = system: COLO 205 colon
DU-145 prostate = system: DU-145 prostate
EKVX NSCLC = system: EKVX NSCLC
HCC-2998 colon = system: HCC-2998 colon
HCT-116 colon = system: HCT-116 colon
HCT-15 colon = system: HCT-15 colon
HL-60(TB) leukemia = system: HL-60(TB) leukemia
HOP-62 NSCLC = system: HOP-62 NSCLC
HOP-92 NSCLC = system: HOP-92 NSCLC
HS 578T breast = system: HS 578T breast
HT29 colon = system: HT29 colon
IGROV1 ovarian = system: IGROV1 ovarian
K-562 leukemia = system: K-562 leukemia
KM12 colon = system: KM12 colon
LOX IMVI melanoma = system: LOX IMVI melanoma
M14 melanoma = system: M14 melanoma
MALME-3M melanoma = system: MALME-3M melanoma
MCF7 breast = system: MCF7 breast
MDA-MB-231 breast = system: MDA-MB-231 breast
MDA-MB-435 = system: MDA-MB-435
MDA-N = system: MDA-N
MOLT-4 leukemia = system: MOLT-4 leukemia
NCI-H226 lung = system: NCI-H226 lung
NCI-H23 lung = system: NCI-H23 lung
NCI-H522 lung = system: NCI-H522 lung
NCI/ADR-RES ovarian = system: NCI/ADR-RES ovarian
OVCAR-3 ovarian = system: OVCAR-3 ovarian
OVCAR-4 ovarian = system: OVCAR-4 ovarian
OVCAR-5 ovarian = system: OVCAR-5 ovarian
OVCAR-8 ovarian = system: OVCAR-8 ovarian
PC-3 prostate = system: PC-3 prostate
RPMI-8226 leukemia = system: RPMI-8226 leukemia
RXF 393 renal = system: RXF 393 renal
SF-268 CNS = system: SF-268 CNS
SF-295 CNS = system: SF-295 CNS
SF-539 CNS = system: SF-539 CNS
SK-MEL-2 melanoma = system: SK-MEL-2 melanoma
SK-MEL-28 melanoma = system: SK-MEL-28 melanoma
SK-MEL-5 melanoma = system: SK-MEL-5 melanoma
SK-OV-3 ovarian = system: SK-OV-3 ovarian
SN12C renal = system: SN12C renal
SNB-19 CNS = system: SNB-19 CNS
SNB-75 CNS = system: SNB-75 CNS
SR leukemia = system: SR leukemia
SW-620 colon = system: SW-620 colon
T-47D breast = system: T-47D breast
TK-10 renal = system: TK-10 renal
U251 CNS = system: U251 CNS
UACC-257 melanoma = system: UACC-257 melanoma
UACC-62 melanoma = system: UACC-62 melanoma
UO-31 renal = system: UO-31 renal
NCI-H460 lung = system: NCI-H460 lung

Cc1ccc(O)c(C(c2ccc(C(c3cc(C)ccc3O)c3cc(C)ccc3O)cc2)c2cc(C)ccc2O)c1
TGI (786-0 renal): 3.11 µM
TGI (A498 renal): 2.91 µM
TGI (A549 NSCLC): 3.23 µM
TGI (ACHN renal): 3.17 µM
TGI (BT-549 breast): 3.49 µM
TGI (CAKI-1 renal): 2.92 µM
TGI (CCRF-CEM leukemia): 5.63 µM
TGI (COLO 205 colon): 2.75 µM
TGI (DU-145 prostate): 3.21 µM
TGI (EKVX NSCLC): 3.57 µM
TGI (HCC-2998 colon): 3.31 µM
TGI (HCT-116 colon): 3.04 µM
TGI (HCT-15 colon): 3.2 µM
TGI (HL-60(TB) leukemia): 5.47 µM
TGI (HOP-62 NSCLC): 4.36 µM
TGI (HOP-92 NSCLC): 3.81 µM
TGI (HS 578T breast): 4.7 µM
TGI (HT29 colon): 3.57 µM
TGI (IGROV1 ovarian): 3.16 µM
TGI (K-562 leukemia): 3.56 µM
TGI (KM12 colon): 3.09 µM
TGI (LOX IMVI melanoma): 3.38 µM
TGI (M14 melanoma): 3.36 µM
TGI (MALME-3M melanoma): 3.45 µM
TGI (MCF7 breast): 4.36 µM
TGI (MDA-MB-231 breast): 2.67 µM
TGI (MDA-MB-435): 3.29 µM
TGI (MDA-N): 2.87 µM
TGI (MOLT-4 leukemia): > 100 µM
TGI (NCI-H226 lung): 3.61 µM
TGI (NCI-H23 lung): 3.25 µM
TGI (NCI-H522 lung): 3.62 µM
TGI (NCI/ADR-RES ovarian): 3.85 µM
TGI (OVCAR-3 ovarian): 3.86 µM
TGI (OVCAR-4 ovarian): 3.22 µM
TGI (OVCAR-5 ovarian): 3.28 µM
TGI (OVCAR-8 ovarian): 3.41 µM
TGI (PC-3 prostate): 3 µM
TGI (RPMI-8226 leukemia): 3.4 µM
TGI (RXF 393 renal): 3.4 µM
TGI (SF-268 CNS): 3.31 µM
TGI (SF-295 CNS): 4.01 µM
TGI (SF-539 CNS): 3.29 µM
TGI (SK-MEL-2 melanoma): 3.89 µM
TGI (SK-MEL-28 melanoma): 3.5 µM
TGI (SK-MEL-5 melanoma): 3.22 µM
TGI (SK-OV-3 ovarian): 3.27 µM
TGI (SN12C renal): 3.1 µM
TGI (SNB-19 CNS): 2.97 µM
TGI (SNB-75 CNS): 3.49 µM
TGI (SR leukemia): 6.33 µM
TGI (SW-620 colon): 3.48 µM
TGI (T-47D breast): 3.23 µM
TGI (TK-10 renal): 2.93 µM
TGI (U251 CNS): 3.82 µM
TGI (UACC-257 melanoma): 3.33 µM
TGI (UACC-62 melanoma): 3.15 µM
TGI (UO-31 renal): 3.25 µM

COc1ccc(NC2=NCCO2)c2c1CCCC2
TGI (786-0 renal): > 100 µM
TGI (A498 renal): > 100 µM
TGI (A549 NSCLC): > 100 µM
TGI (ACHN renal): > 100 µM
TGI (BT-549 breast): > 100 µM
TGI (CAKI-1 renal): > 100 µM
TGI (CCRF-CEM leukemia): 86 µM
TGI (COLO 205 colon): > 100 µM
TGI (DU-145 prostate): > 100 µM
TGI (EKVX NSCLC): > 100 µM
TGI (HCC-2998 colon): > 100 µM
TGI (HCT-116 colon): > 100 µM
TGI (HCT-15 colon): > 100 µM
TGI (HL-60(TB) leukemia): 40 µM
TGI (HOP-92 NSCLC): 79.5 µM
TGI (HS 578T breast): 91.6 µM
TGI (HT29 colon): > 100 µM
TGI (IGROV1 ovarian): > 100 µM
TGI (K-562 leukemia): > 100 µM
TGI (KM12 colon): > 100 µM
TGI (LOX IMVI melanoma): > 100 µM
TGI (M14 melanoma): > 100 µM
TGI (MALME-3M melanoma): > 100 µM
TGI (MCF7 breast): > 100 µM
TGI (MDA-MB-231 breast): > 100 µM
TGI (MDA-MB-435): > 100 µM
TGI (MDA-N): > 100 µM
TGI (MOLT-4 leukemia): 42.4 µM
TGI (NCI-H226 lung): 65.3 µM
TGI (NCI-H23 lung): 87.9 µM
TGI (NCI-H460 lung): > 100 µM
TGI (NCI-H522 lung): > 100 µM
TGI (NCI/ADR-RES ovarian): > 100 µM
TGI (OVCAR-3 ovarian): > 100 µM
TGI (OVCAR-4 ovarian): > 100 µM
TGI (OVCAR-5 ovarian): > 100 µM
TGI (OVCAR-8 ovarian): > 100 µM
TGI (PC-3 prostate): > 100 µM
TGI (RPMI-8226 leukemia): 87 µM
TGI (RXF 393 renal): 86.2 µM
TGI (SF-295 CNS): > 100 µM
TGI (SF-539 CNS): > 100 µM
TGI (SK-MEL-2 melanoma): 42.6 µM
TGI (SK-MEL-28 melanoma): > 100 µM
TGI (SK-MEL-5 melanoma): 33.7 µM
TGI (SK-OV-3 ovarian): 84.8 µM
TGI (SNB-19 CNS): > 100 µM
TGI (SNB-75 CNS): 93.9 µM
TGI (SR leukemia): 88.2 µM
TGI (SW-620 colon): > 100 µM
TGI (T-47D breast): > 100 µM
TGI (TK-10 renal): > 100 µM
TGI (U251 CNS): > 100 µM
TGI (UACC-257 melanoma): > 100 µM
TGI (UACC-62 melanoma): 89.2 µM
TGI (UO-31 renal): > 100 µM
